# Key:
# DU4475 = test: In vitro potency (IC50) of Palbociclib on breast cancer cell line; assay type: cell-based; conditions: Homo sapiens, DU-4475, read-out: Observed IC50
# Excerpt: (§1) Palbociclib, a targeted inhibitor of CDK4/6 indicated for breast cancer. Identification of Human Breast Cancer cell lines sensitive and resistant to Palbociclib using the method 300 for drug discovery and development, particularly for identification, selection and validation of Human Cancer Cell lines and Biomarkers based on Pharmacological Target(s). A comparison of Predicted Efficacy with Observed Efficacy in cell lines/patients is provided. The pharmacological target is Ser/Thr-kinase component of cyclin D-CDK4/6, which inhibits CDK4/6 phosphorylation of retinoblastoma (RB) protein family (RB1). The phenotypic end point of which is the inhibition of cell proliferation. Further, the Breast Cancer Cell Lines are selected based on the multi-omics and pathway regulator status. […] The predicted response (sensitivity or resistance to Palbociclib) was compared with cell line in vitro potency data (IC50) of Palbociclib. The predicted responses were in agreement with observed data (IC50) for Palbociclib's activity on various Human Breast Cancer cell lines. Table 6a and 6b show the comparison of predicted response values, for both sensitive and resistant to Palbociclib, with observed data.
# HCC1500 = test: as above; assay type: cell-based; conditions: Homo sapiens, read-out: Observed IC50
# Excerpt: as §1
# EFM19 = test: as above; assay type: cell-based; conditions: Homo sapiens, EFM-19, read-out: Observed IC50
# Excerpt: as §1
# MDAMB231 = test: as above; assay type: cell-based; conditions: Homo sapiens, MDA-MB-231, read-out: Observed IC50
# Excerpt: as §1
# MDAMB157 = test: as above; assay type: cell-based; conditions: Homo sapiens, MDA-MB-157, read-out: Observed IC50
# Excerpt: as §1
# HCC1569 = test: as above; assay type: cell-based; conditions: Homo sapiens, read-out: Observed IC50
# Excerpt: as §1
# HCC2157 = test: as above; assay type: cell-based; conditions: Homo sapiens, read-out: Observed IC50
# Excerpt: as §1
# MDAMB361 = test: as above; assay type: cell-based; conditions: Homo sapiens, MDA-MB-361, read-out: Observed IC50
# Excerpt: as §1
# MDAMB468 = test: as above; assay type: cell-based; conditions: Homo sapiens, MDA-MB-468, read-out: Observed IC50
# Excerpt: as §1
# MCF7 = test: as above; assay type: cell-based; conditions: Homo sapiens, read-out: Observed IC50
# Excerpt: as §1
# [1] = test system: cell line population with amplified ABCB1; test: Response curves (IC50 values) of cell line populations, transporter amplified vs wildtype, vincristine; conditions: IC50 values for 530 cell lines from Cancerrx
# Excerpt: (§2) The drug transporter identification module 205 allows identification of co-relating genomic factors such as factors affecting drug transporters, transporter genes, or any alterations therein such as transporter gene amplification including copy number alterations ([…]), increased m-RNA expressions, etc. particularly associated with multidrug resistance (MDR) development. The drug transporter identification module 205 allows identifying drug transporter factors that impact the efficacy of the drug of interest using in vitro sensitivity data, during pre-clinical phase of drug development. […] Drug transporters such as solute carrier (SLC) family and ATP-binding cassette (ABC) family are known to function as drug efflux pumps which contribute towards drug resistance and reduced bioavailability. The method, in various embodiments herein use in vitro sensitivity data in identification of MDR transporter genes during pre-clinical phase of drug development. In an embodiment, in vitro sensitivity data for chemo therapeutic drug, vincristine (particularly cell line-specific IC50 values for 530 cell lines), from cancerrx (database of genomics of drug sensitivity), and cell multi-omics characteristics, from Cancer Cell Line Encyclopedia (CCLE) were used as inputs for the stratification algorithm. […]
# [2] = test system: cell line population with amplified ABCB4; test: as above; conditions: IC50 values for 530 cell lines from Cancerrx
# Excerpt: as §2
Compound,IC50 (DU4475) [nM],IC50 (HCC1500) [nM],IC50 (EFM19) [nM],IC50 (MDAMB231) [nM],IC50 (MDAMB157) [nM],IC50 (HCC1569) [nM],IC50 (HCC2157) [nM],IC50 (MDAMB361) [nM],IC50 (MDAMB468) [nM],IC50 (MCF7) [nM],Efficacy in cell line population with ABCB1 amplification compared to wildtype (median of response curves) [1],Efficacy in cell line population with ABCB4 amplification compared to wildtype (median of response curves) [2]
CC(=O)c1c(C)c2cnc(Nc3ccc(N4CCNCC4)cn3)nc2n(C2CCCC2)c1=O [Palbociclib],> 1000,45,27,432,> 1000,> 1000,> 1000,44,> 1000,148,–,–
CC[C@]1(O)C[C@H]2CN(CCc3c([nH]c4ccccc34)[C@@](C(=O)OC)(c3cc4c(cc3OC)N(C=O)[C@H]3[C@@](O)(C(=O)OC)[C@H](OC(C)=O)[C@]5(CC)C=CCN6CC[C@]43[C@@H]65)C2)C1 [vincristine],–,–,–,–,–,–,–,–,–,–,lesser efficacy,lower efficacy
